Experimental data from ChEMBL document CHEMBL1629589, “Activity of the oral neuraminidase inhibitor A-322278 against the oseltamivir-resistant H274Y (A/H1N1) influenza virus mutant in mice” (2009).

Legend:
Format in all cases: functional
Influenza A virus [1] = assay: Antiviral activity against recombinant Influenza A virus (A/WSN/1933(H1N1)) H274Y mutant infected in BALB/c mouse assessed as mortality rate at 10 mg/kg, po administered 48 hrs postinfection for 5 days measured on day 5 (reference value: 100 %)
Influenza A virus [2] = assay: Antiviral activity against recombinant Influenza A virus (A/WSN/1933(H1N1)) H274Y mutant infected in BALB/c mouse assessed as reduction in body weight at 10 mg/kg, po administered 4 hrs before infection for 5 days measured on day 5 (reference value: 22.2 %); set-up: scale not given: the % may be the effect or the level left
Influenza A virus [3] = assay: Antiviral activity against recombinant Influenza A virus (A/WSN/1933(H1N1)) H274Y mutant infected in BALB/c mouse assessed as time to death at 1 mg/kg, po administered 4 hrs before infection on day 5 (reference value: 5.1 days)
Influenza A virus [4] = assay: Antiviral activity against recombinant Influenza A virus (A/WSN/1933(H1N1)) H274Y mutant infected in BALB/c mouse assessed as time to death at 10 mg/kg, po administered 48 hrs postinfection for 5 days (reference value: 5.1 days)
Influenza A virus [5] = assay: Antiviral activity against recombinant Influenza A virus (A/WSN/1933(H1N1)) H274Y mutant infected in BALB/c mouse assessed as lung viral titer at 10 mg/kg, po administered 48 hrs postinfection for 5 days measured on day 4 (reference value: 1 x 10^6 +/- 0.3 x 10^6 PFU)
Influenza A virus [6] = assay: Antiviral activity against recombinant Influenza A virus (A/WSN/1933(H1N1)) H274Y mutant infected in BALB/c mouse assessed as lung viral titer at 10 mg/kg, po administered 4 hrs before infection for 5 days measured on day 4 (reference value: 1 x 10^6 +/- 0.3 x 10^6 PFU)
Influenza A virus [7] = assay: Antiviral activity against recombinant Influenza A virus (A/WSN/1933(H1N1)) H274Y mutant infected in BALB/c mouse assessed as lung viral titer at 1 mg/kg, po administered 48 hrs postinfection for 5 days measured on day 4 (reference value: 1 x 10^6 +/- 0.3 x 10^6 PFU)
Influenza A virus [8] = assay: Antiviral activity against recombinant Influenza A virus (A/WSN/1933(H1N1)) H274Y mutant infected in BALB/c mouse assessed as mortality rate at 1 mg/kg, po administered 4 hrs before infection for 5 days measured on day 5 (reference value: 100 %)
Influenza A virus [9] = assay: Antiviral activity against recombinant Influenza A virus (A/WSN/1933(H1N1)) H274Y mutant infected in BALB/c mouse assessed as reduction in body weight at 1 mg/kg, po administered 48 hrs postinfection for 5 days measured on day 5 (reference value: 22.2 %); set-up: scale not given: the % may be the effect or the level left
Influenza A virus [10] = assay: Antiviral activity against recombinant Influenza A virus (A/WSN/1933(H1N1)) H274Y mutant infected in BALB/c mouse assessed as mortality rate at 1 mg/kg, po administered 48 hrs postinfection for 5 days measured on day 5 (reference value: 100 %)
Influenza A virus [11] = assay: Antiviral activity against recombinant Influenza A virus (A/WSN/1933(H1N1)) H274Y mutant infected in BALB/c mouse assessed as reduction in body weight at 10 mg/kg, po administered 48 hrs postinfection for 5 days measured on day 5 (reference value: 22.2 %); set-up: scale not given: the % may be the effect or the level left
Influenza A virus [12] = assay: Antiviral activity against recombinant Influenza A virus (A/WSN/1933(H1N1)) H274Y mutant infected in BALB/c mouse assessed as mortality rate at 10 mg/kg, po administered 4 hrs before infection for 5 days measured on day 5 (reference value: 100 %)
Influenza A virus [13] = assay: Antiviral activity against recombinant Influenza A virus (A/WSN/1933(H1N1)) H274Y mutant infected in BALB/c mouse assessed as lung viral titer at 1 mg/kg, po administered 4 hrs before infection for 5 days measured on day 4 (reference value: 1 x 10^6 +/- 0.3 x 10^6 PFU)
Influenza A virus [14] = assay: Antiviral activity against recombinant Influenza A virus (A/WSN/1933(H1N1)) H274Y mutant infected in BALB/c mouse assessed as reduction in body weight at 1 mg/kg, po administered 4 hrs before infection for 5 days measured on day 5 (reference value: 22.2 %); set-up: scale not given: the % may be the effect or the level left
Influenza A virus [15] = assay: Antiviral activity against recombinant Influenza A virus (A/WSN/1933(H1N1)) H274Y mutant infected in BALB/c mouse assessed as time to death at 1 mg/kg, po administered 48 hrs postinfection for 5 days (reference value: 5.1 days)

| SMILES | Activity (Influenza A virus [1]) | Activity (Influenza A virus [2]) | Time (Influenza A virus [3]) | Time (Influenza A virus [4]) | PFU (Influenza A virus [5]) | PFU (Influenza A virus [6]) | PFU (Influenza A virus [7]) | Activity (Influenza A virus [8]) | Activity (Influenza A virus [9]) | Activity (Influenza A virus [10]) | Activity (Influenza A virus [11]) | Activity (Influenza A virus [12]) | PFU (Influenza A virus [13]) | Activity (Influenza A virus [14]) | Time (Influenza A virus [15]) |
| --- | --- | --- | --- | --- | --- | --- | --- | --- | --- | --- | --- | --- | --- | --- | --- |
| C/C=C\[C@@H]1C[C@H](C(=O)OC(C)C)N[C@H]1[C@@H](NC(C)=O)[C@](C)(CCC)OC | 25% | 5% | 5 days | 5.4 days | 130000 | 35000 | 83000 | 0% | 19% | 75% | 15.6% | 0% | 69000 | 10.8% | – |
| CCOC(=O)C1=C[C@@H](OC(CC)CC)[C@H](NC(C)=O)[C@@H](N)C1 [OSELTAMIVIR] | 75% | – | 5.1 days | 5.2 days | 13000 | – | 230000 | 100% | 20.1% | 100% | 21.5% | – | 190000 | 23.7% | 5 days |
